Experimental findings from patent US8268861B2, “P2X7R antagonists and their use” (Affectis Pharmaceuticals AG, priority 2009, dated 2012) are described below.

As a reminder, the IC50 is the concentration at which inhibition is half-maximal.

For one experiment, the system named is IL-1 beta secretion. Put plainly: IL-1 beta secretion by LPS/BzATP-stimulated isolated human monocytes (macrophages), ELISA. The format is cell-based. As to conditions: 1 μg/mL LPS 2 hours, 100 μM BzATP 30 minutes, compound added 5 minutes before BzATP, FIG. 1, p<0.01. Here is the method:
The effects of compounds of the present invention on IL-1 beta secretion is assessed using isolated human monocytes.
Briefly, human monocytes were purified from human blood by Ficoll-Paque from Buffy coats as follows. The Buffy coat is a greyish white layer of white blood cells and platelets that accumulates on the surface of sedimented erythrocytes when blood is allowed to stand or is centrifuged. Each Buffy coat (one per donor) was diluted with PBS and 20 ml added on top of 15 ml of Ficoll-Paque. The gradient was centrifuged at 900 g for 20 min at room temperature. […] At day 5, the cells were counted, resuspended in RPMI 1640 supplemented with 5% human serum at a concentration of 1×10^6/ml and plated onto a 24 wells plate (5×10^5 cells/well). […]
The day of experiment, the macrophages were pre-stimulated for 2 hours with 1 μg/mL LPS at 37° C. […] After incubation, the supernatants were collected by centrifugation (250 g for 5 minutes) and IL-1β secretion was measured by using the human IL-1 beta/IL-1F2 Quantikine ELISA Kit following manufacturer's instructions. […] The O.D. at 450 nm was measured for each data points and the IL-1β concentration calculated based on a standard curve. The […] concentration was further calculated to have a concentration in pg/mL/10E+6 cells, together with its standard deviation.
Background: ELISA stands for enzyme-linked immunosorbent assay.

For another experiment, the target named is T1, human P2X7R (Homo sapiens, UniProt Q99572).
T1 construct: expressed in transfected cells
T1 sequence (Q99572 1-595): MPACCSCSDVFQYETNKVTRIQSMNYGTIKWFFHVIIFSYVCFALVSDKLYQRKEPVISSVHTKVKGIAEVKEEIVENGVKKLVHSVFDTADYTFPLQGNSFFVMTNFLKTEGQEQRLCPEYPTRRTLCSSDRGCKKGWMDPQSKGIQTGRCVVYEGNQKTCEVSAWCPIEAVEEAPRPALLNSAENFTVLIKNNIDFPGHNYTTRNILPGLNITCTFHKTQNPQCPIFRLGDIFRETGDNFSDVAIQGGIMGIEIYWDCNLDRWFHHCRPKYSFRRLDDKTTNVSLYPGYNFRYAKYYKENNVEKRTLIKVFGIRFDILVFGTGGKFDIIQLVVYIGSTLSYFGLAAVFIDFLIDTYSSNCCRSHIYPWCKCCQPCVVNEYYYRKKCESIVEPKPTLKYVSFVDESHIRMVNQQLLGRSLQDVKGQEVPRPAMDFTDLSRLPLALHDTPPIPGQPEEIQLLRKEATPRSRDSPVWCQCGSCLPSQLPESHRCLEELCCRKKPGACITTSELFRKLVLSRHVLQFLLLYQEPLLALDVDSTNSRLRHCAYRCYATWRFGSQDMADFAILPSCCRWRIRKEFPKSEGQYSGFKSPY
Put plainly: Inhibition of Bz-ATP-stimulated calcium influx in Hek293 cells stably transfected with human P2X7R (Fluo-4-AM). The format is cell-based. Particulars: Hek293 cells expressing human P2X7R, 100 μM Bz-ATP, 15 minute incubation with test compound. On the procedure:
Inhibition of P2X7R activity by the compounds of the present invention is assessed by measuring calcium influx in Hek293 cells (ECACC No. 85120602) which have been stably transfected with a cDNA for the human P2X7R.
Hek293 cells expressing P2X7R were generated by lipofectamine transfection of the human P2X7R cDNA (Genbank accession number BC011913) under the control of the human cytomegalovirus immediate-early (CMV) promoter and inserted into the pcDNA3.1 vector (Invitrogen). […]
Inhibition of Bz-ATP-stimulated P2X7R by test compounds was monitored by measuring changes in calcium influx using the Fluo-4-AM fluorescent dye according to the manufacturer's recommendations (Molecular Devices Corporation, U.S.A.). […] After a 15 minute incubation, 100 μM Bz-ATP was added and fluorescence was measured in a FlexStation II (Molecular Devices, U.S.A.) according to the following parameters: 485 nm Excitation Wavelength; 525 nm Emission Wavelength; 515 nm Emission Cut-off; 100 μl Pipette Height; 25 μl Transfer Volume; 5 fold Compound Concentration; 3 rate Addition Speed. […] The fluorescence data were processed using a lag time of 15 seconds, recording 45 seconds, zero baseline calibrated using 2 points, and % baseline multiplier set at 3. […]

For `O=C(CC1CCCCCC1)Nc1cn(CCO)c2cccc(Cl)c12` [Example 2, N-(4-chloro-1-(2-hydroxyethyl)-1H-indol-3-yl)-2-cycloheptylacetamide], the IL-1beta secretion result in the experiment on IL-1 beta secretion is “reduced IL-1beta secretion”. The IC50 on human P2X7R is approximately 3.8 nM.
